Laboratory results published in paper PMC2747106 (Journal of veterinary pharmacology and therapeutics, 2009).
Where a name gives a salt, the structure may show the parent alone. Values belong to the compound of their own block, whether it stands above or below them.

Tests used:
[1] = system: organic cation transporters (TEA); organic anion transporters (ES); details: bovine
[2] = system: organic anion transporters (OAT); assay: Inhibition study: effect of inhibitors on ES permeation across BME-UV monolayer; format: cell-based, bovine; details: inhibitor added to donor compartment
[3] = system: organic cation transporters (OCT); assay: Inhibition study: effect of inhibitors on TEA permeation across BME-UV monolayer; format: cell-based, bovine; details: inhibitor added to donor compartment
[4] = system: mouse mammary epithelial monolayer; details: ref Toddywalla et al., 1997; cited from earlier work
[5] = bovine
[6] = system: human mammary epithelial monolayer; details: ref Kimura et al., 2006; cited from earlier work
[7] = system: monolayer of BME-UV cells
[8] = either direction (data not shown)

Papp A→B at 4 h, 100 µM [1]: 0.66 ± 0.06 ×10⁻⁶ cm/s
Papp B→A at 4 h, 100 µM [1]: 2.2 ± 0.1 ×10⁻⁶ cm/s
Papp at 4 h (in vitro): 122 ± 34 ×10⁻⁶ cm/s
SMILES: C[C@]12CC[C@@H]3c4ccc(OS(=O)(=O)O)cc4CC[C@H]3[C@@H]1CCC2=O [ES, estrone sulfate]

SMILES: CCCN(CCC)S(=O)(=O)c1ccc(C(=O)O)cc1 [probenecid]
decrease of permeation rate constant of ES by inhibitor ([2]; BL-to-Ap direction only): approximately 36%
effect of inhibitor on permeation rate constant of TEA [3, 8]: not changed significantly

Papp at 4 h, 2 µM [5]: 0.91 ± 0.4 ×10⁻⁶ cm/s
SMILES: OC[C@@H](O)[C@@H](O)[C@H](O)[C@H](O)CO [mannitol]
Papp of mannitol [4]: 1.94e-06 cm/s
Papp of mannitol [6]: 2.6e-06 cm/s

SMILES: CC[N+](CC)(CC)CC [TEA, Tetraethylammonium bromide]
permeation rate constant for TEA relative to ES, Ap-to-BL ([7]; Ap-to-BL direction): 3 times
permeation rate constant for TEA relative to ES, BL-to-Ap ([7]; BL-to-Ap direction): 2 times
Papp A→B at 4 h, 100 µM [1]: 2 ± 0.02 ×10⁻⁶ cm/s
Papp B→A at 4 h, 100 µM [1]: 5.1 ± 0.4 ×10⁻⁶ cm/s
Papp at 4 h (in vitro): 161 ± 18 ×10⁻⁶ cm/s

SMILES: CCN1C(=Cc2ccc3ccccc3[n+]2CC)C=Cc2ccccc21.[I-] [cyanine, 1,1-Diethyl-2,2-cyanine iodide]
effect of inhibitor on permeation rate constant of ES [2, 8]: not changed significantly
decrease of permeation rate constant of TEA by inhibitor ([3]; BL-to-Ap direction only): approximately 49%
